Measurements reported in patent US10947188B2, “Small molecule ferroptosis inducers” (THE TRUSTEES OF COLUMBIA UNIVERSITY IN THE CITY OF NEW YORK, priority 2016, dated 2021).
Where two headings read alike, the source gives them in different places. Where a SMILES comes first, the peptide text is derived from it. The star is where a group is joined. Cbz = O=C(OCc1ccccc1)*

Tested on: HT-1080
Assay: Modulatory profiling: Alamar Blue viability, lethal compound cotreated with death modulator (EC50, AUC)
Type: cell-based
Design: AUC, modulator HT.3MA / AUC, modulator HT.ALLN / AUC HT.ATA / AUC HT.ActD / AUC HT.BHA / AUC HT.BHT / AUC HT.BocD / AUC HT.CHX / AUC HT.Co2+ / AUC HT.DPQ / AUC HT.EGTA / AUC HT.Lmim / AUC HT.NAD+ / AUC HT.Nec-1 / AUC HT.SP600125 / AUC HT.TLCK / AUC HT.U0126: unit not given beside the values
Conditions: for AUC HT.ATA: HT-1080, modulator ATA; for AUC HT.ActD: HT-1080, modulator ActD; for AUC HT.BHA: HT-1080, modulator BHA; for AUC HT.BHT: HT-1080, modulator BHT; for AUC HT.BocD: HT-1080, modulator BocD; for AUC HT.CHX: HT-1080, modulator CHX; for AUC HT.Co2+: HT-1080, modulator Co2+; for AUC HT.CspA: HT-1080, modulator CspA; for AUC HT.DPQ: HT-1080, modulator DPQ; for AUC HT.Gd3+: HT-1080, modulator Gd3+; for AUC HT.LNAME: HT-1080, modulator LNAME; for AUC HT.Lmim: HT-1080, modulator Lmim; for AUC HT.NAD+: HT-1080, modulator NAD+; for AUC HT.NMMA: HT-1080, modulator NMMA; for AUC HT.Nec-1: HT-1080, modulator Nec-1; for AUC HT.Pepstatin: HT-1080, modulator Pepstatin; for AUC HT.SP600125: HT-1080, modulator SP600125; for AUC HT.TLCK: HT-1080, modulator TLCK; for AUC HT.U0126: HT-1080, modulator U0126; for HT.atoc (AUC) / HT.bCarotene (AUC) / HT.deferox (AUC) / HT.digoxin (AUC) / HT.trolox (AUC) / HT.zVAD (AUC): HT-1080; for HT.atoc (AUC): modulator atoc; for HT.bCarotene (AUC): modulator bCarotene; for HT.deferox (AUC): modulator deferox; for HT.digoxin (AUC): modulator digoxin; for HT.trolox (AUC): modulator trolox; for HT.zVAD (AUC): modulator zVAD; for AUC, modulator HT.3MA / AUC, modulator HT.ALLN: HT-1080 cells, modulatory profile value (AUC); for AUC, modulator HT.3MA: lethal compound cotreated with modulator 3MA; for AUC, modulator HT.ALLN: lethal compound cotreated with modulator ALLN

Row | SMILES | AUC HT.ATA | AUC HT.ActD | AUC HT.BHA | AUC HT.BHT | AUC HT.BocD | AUC HT.CHX | AUC HT.Co2+ | AUC HT.CspA | AUC HT.DPQ | AUC HT.Gd3+ | AUC HT.LNAME | AUC HT.Lmim | AUC HT.NAD+ | AUC HT.NMMA | AUC HT.Nec-1 | AUC HT.Pepstatin | AUC HT.SP600125 | AUC HT.TLCK | AUC HT.U0126 | HT.atoc (AUC) | other results
1 | CC[C@@]1(O)C(=O)OCc2c1cc1n(c2=O)Cc2cc3ccccc3nc2-1 [Camptothecin] | −0.00483 | −0.1287 | 0.04861 | −0.08411 | 0.03455 | 0.0562 | 0.1416 | −0.1552 | 0.008143 | 0.02887 | 0.01135 | 0.0722 | 0.06078 | 0.01978 | 0.01102 | 0.005918 | 0.02319 | 0.04383 | 0.0002717 | 0.004008 | AUC HT.EGTA (HT-1080, modulator EGTA): 0.01652; HT.bCarotene (AUC): 0.002837; HT.deferox (AUC): 0.1288; HT.digoxin (AUC): 0.1442; HT.trolox (AUC): 0.01719; HT.zVAD (AUC): 0.03249; AUC, modulator HT.3MA: 0.0192; AUC, modulator HT.ALLN: 0.03354
2 | COc1ccc(N(C(=O)CCl)C(C(=O)NCCc2ccccc2)c2cccs2)cc1 (stereo not shown) [DPI4] | −0.03622 | −0.006831 | 0.285 | 0.2486 | −0.01407 | −0.008699 | 0.1741 | 5.8801E−05 | 0.05528 | −0.02121 | 0.01547 | 0.3086 | 0.02441 | −0.0007723 | 0.05135 | −0.003295 | −0.04284 | 0.1761 | 0.3423 | 0.3523 | AUC HT.EGTA (HT-1080, modulator EGTA): 0.0361; HT.bCarotene (AUC): −0.01264; HT.deferox (AUC): 0.4095; HT.digoxin (AUC): −0.06343; HT.trolox (AUC): 0.3151; HT.zVAD (AUC): −0.04451; AUC, modulator HT.3MA: −0.001458; AUC, modulator HT.ALLN: −0.1648
3 | COc1cccc2c1C(=O)c1c(O)c3c(c(O)c1C2=O)C[C@@](O)(C(C)=O)C[C@@H]3O[C@H]1C[C@H](N)[C@H](O)[C@H](C)O1 [Daunorubicin] | −0.00186 | 0.01442 | 0.0107 | −0.05609 | 0.0522 | 0.05854 | 0.1614 | −0.0792 | 0.008882 | 0.01529 | −0.009852 | 0.06112 | 0.1305 | 0.0183 | 0.02174 | 0.005649 | −0.0113 | 0.06429 | −0.0159 | 0.009895 | AUC HT.EGTA: 0.03262; HT.bCarotene (AUC): 0.008265; HT.deferox (AUC): 0.1515; HT.digoxin (AUC): 0.1398; HT.trolox (AUC): −0.002722; HT.zVAD (AUC): 0.04455; AUC, modulator HT.3MA: 0.02823; AUC, modulator HT.ALLN: 0.008692
4 | CS[C@H]1SC[C@H]2C(=O)N(C)[C@@H](C(C)C)C(=O)OC[C@@H](NC(=O)c3cnc4ccccc4n3)C(=O)N[C@@H](C)C(=O)N(C)[C@@H]1C(=O)N(C)[C@@H](C(C)C)C(=O)OC[C@@H](NC(=O)c1cnc3ccccc3n1)C(=O)N[C@@H](C)C(=O)N2C [Echinomycin] | 0.04087 | 0.06604 | 0.02424 | −0.04076 | 0.07385 | 0.1436 | 0.1492 | −0.08426 | 0.006918 | 0.01526 | 0.01178 | 0.06784 | 0.178 | −0.0009733 | 0.02093 | 0.006861 | 0.08228 | 0.006436 | 0.01676 | 0.1464 | AUC HT.EGTA (HT-1080, modulator EGTA): 0.006916; HT.bCarotene (AUC): −0.004968; HT.deferox (AUC): 0.1665; HT.digoxin (AUC): 0.09969; HT.trolox (AUC): −0.02423; HT.zVAD (AUC): 0.07367; AUC, modulator HT.3MA: 0.3083; AUC, modulator HT.ALLN: 0.084
5 | CC(C)C[C@@H](C=O)NC(=O)[C@H](CC(C)C)NC(=O)[C@H](CC(C)C)NC(=O)OCc1ccccc1 [MG132, reference compound] (Cbz-Leu-Leu-Leu-aldehyde) | 0.005768 | −0.06417 | −0.1238 | −0.1271 | 0.002051 | 0.04854 | −0.05705 | −0.3221 | −0.02406 | −0.011 | 5.1006E−05 | 0.001338 | 0.03798 | 0.01064 | −0.09728 | −0.02733 | −0.03431 | 0.01546 | −0.071 | 0.04884 | AUC HT.EGTA: 0.007775; HT.bCarotene (AUC): 7.0861E−05; HT.deferox (AUC): −0.1162; HT.digoxin (AUC): 0.08352; HT.trolox (AUC): −0.01616; HT.zVAD (AUC): −0.0992; AUC, modulator HT.3MA: −0.03392; AUC, modulator HT.ALLN: −0.2149
6 | CC(C)C[C@H](NC(=O)[C@H](CC(C)C)NC(=O)[C@H](CC(C)C)NC(=O)OCc1ccccc1)B(O)O [MG262] | 0.0332 | −0.05854 | −0.0765 | −0.1219 | 0.007582 | −0.003977 | −0.04425 | −0.2145 | 0.008104 | −0.003168 | 0.007002 | 0.001457 | 0.07679 | −0.004229 | −0.06817 | −0.006069 | −0.036 | 0.03566 | −0.06664 | 0.05222 | AUC HT.EGTA (HT-1080, modulator EGTA): −0.001152; HT.bCarotene (AUC): −0.009255; HT.deferox (AUC): −0.08465; HT.digoxin (AUC): 0.05597; HT.trolox (AUC): −0.02068; HT.zVAD (AUC): −0.05837; AUC, modulator HT.3MA: −0.06563; AUC, modulator HT.ALLN: −0.1356
7 | O=C1c2c(O)ccc(O)c2C(=O)c2c(NCCNCCO)ccc(NCCNCCO)c21 [Mitoxantrone] | 0.02422 | −0.02073 | 0.02091 | −0.0249 | 0.06802 | 0.04002 | 0.3817 | −0.1127 | 0.006504 | 0.03227 | 0.01298 | 0.05678 | 0.1502 | 0.0236 | 0.01073 | 0.02067 | −0.01575 | 0.06003 | −0.03205 | 0.04839 | AUC HT.EGTA (HT-1080, modulator EGTA): 0.01802; HT.bCarotene (AUC): −0.003915; HT.deferox (AUC): 0.1001; HT.digoxin (AUC): 0.1321; HT.trolox (AUC): −0.01388; HT.zVAD (AUC): 0.03446; AUC, modulator HT.3MA: 0.02955; AUC, modulator HT.ALLN: 0.07355
8 | [N-]=[N+]=[N-].[Na+] [NaN3] | 0.03107 | 0.1197 | −0.04061 | −0.1432 | 0.008996 | 0.04722 | 0.03941 | −0.04777 | −0.00797 | −0.004604 | −0.01351 | −0.07613 | 0.06683 | 0.002822 | −0.02968 | −0.004337 | −0.004079 | 0.0226 | 0.02567 | −0.031 | AUC HT.EGTA (HT-1080, modulator EGTA): −0.002548; HT.bCarotene (AUC): 0.00681; HT.deferox (AUC): 0.07882; HT.digoxin (AUC): 0.01948; HT.trolox (AUC): −0.001376; HT.zVAD (AUC): 0.01031; AUC, modulator HT.3MA: −0.05719; AUC, modulator HT.ALLN: 0.06335
9 | COc1cc([C@@H]2c3cc4c(cc3[C@H](O)[C@H]3COC(=O)[C@H]23)OCO4)cc(OC)c1OC [Podophyllotoxin] | 0.1206 | −0.0009195 | 0.02739 | 0.0008586 | 0.0984 | 0.07197 | 0.1102 | −0.07592 | 0.005964 | 0.00916 | −0.004926 | 0.1098 | 0.1318 | 0.000472 | −0.0001825 | −0.0005129 | −0.02768 | 0.06978 | 0.1354 | −0.02023 | AUC HT.EGTA (HT-1080, modulator EGTA): 0.01145; HT.bCarotene (AUC): 0.0009225; HT.deferox (AUC): 0.3104; HT.digoxin (AUC): 0.1098; HT.trolox (AUC): 0.0103; HT.zVAD (AUC): 0.09402; AUC, modulator HT.3MA: 0.001351; AUC, modulator HT.ALLN: 0.1572
10 | C=C(C)[C@H]1Cc2c(ccc3c2O[C@@H]2COc4cc(OC)c(OC)cc4[C@@H]2C3=O)O1 [Rotenone] | 0.05899 | 0.1062 | −0.02184 | 0.02467 | 0.05103 | 0.07793 | 0.2003 | −0.1722 | −0.005403 | 0.01051 | −0.007377 | 0.1413 | 0.1563 | 0.007832 | 0.003921 | −0.02255 | −0.01964 | 0.0438 | 0.1384 | 0.04769 | AUC HT.EGTA (HT-1080, modulator EGTA): 0.002258; HT.bCarotene (AUC): 0.003594; HT.deferox (AUC): 0.347; HT.digoxin (AUC): 0.1617; HT.trolox (AUC): 0.003895; HT.zVAD (AUC): 0.01972; AUC, modulator HT.3MA: 0.06289; AUC, modulator HT.ALLN: 0.07973
